Key:
[1] = molecular target: T1, tubulin; assay: Tubulin binding assay (fluorescence titration, quenching of intrinsic tubulin fluorescence); parameters: species or system mammalian; conditions: 2 μM tubulin, 45 min at 37° C., double reciprocal plot; read-out: dissociation constant (Kd) for binding to tubulin
T1 construct: other: 2 μM tubulin, 45 min at 37° C., double reciprocal plot; rate and extent of tubulin polymerization; other: 25 μM or 100 μM
Experimental: Fluorescence titration for determining the tubulin binding parameters was performed as described previously (Gupta and Panda, 2002). In brief, 9-nitro-nos (0-100 μM) was incubated with 2 μM tubulin in 25 mM PIPES, pH 6.8, 3 mM MgSO4 and 1 mM EGTA for 45 min at 37° C. The relative intrinsic fluorescence intensity of tubulin was then monitored in a JASCO FP-6500 spectrofluorometer (JASCO, Tokyo, Japan) using a cuvette of 0.3-cm path length, and the excitation wavelength was 295 nm. The fluorescence emission intensity of 9-nitro-nos at this excitation wavelength was negligible. A 0.3-cm path-length cuvette was used to minimize the inner filter effects caused by the absorbance of 9-nitro-nos at higher concentration ranges. In addition, the inner filter effects were corrected using a formula Fcorrected=Fobserved·antilog [(Aex+Aem)/2], where Aex is the absorbance at the excitation wavelength and Aem is the absorbance at the emission wavelength. The dissociation constant (Kd) was determined by the formula: 1/B=Kd/[free ligand]+1, where B is the fractional occupancy and [free ligand] is the concentration of free noscapine or 9-nitro-nos. The fractional occupancy (B) was determined by the formula B=ΔF/ΔFmax, where ΔF is the change in fluorescence intensity when tubulin and its ligand are in equilibrium and ΔFmax is the value of maximum fluorescence change when tubulin is completely bound with its ligand. ΔFmax was calculated by plotting 1/ΔF versus 1/ligand using total ligand concentration as the first estimate of free ligand concentration.
Fluorescence titration for determining the tubulin binding parameters was performed as described previously. In brief, 9-F-nos, 9-Cl-nos, 9-Br-nos or 9-I-nos (0-100 μM) was incubated with 2 μM tubulin in 25 mM PIPES, pH 6.8, 3 mM MgSO4, and 1 mM EGTA for 45 min at 37° C. The relative intrinsic fluorescence intensity of tubulin was then monitored in a JASCO FP-6500 spectrofluorometer (JASCO, Tokyo, Japan) using a cuvette of 0.3-cm path length, and the excitation wavelength was 295 nm. The fluorescence emission intensity of noscapine and its derivatives at this excitation wavelength was negligible. A 0.3-cm path-length cuvette was used to minimize the inner filter effects caused by the absorbance of these agents at higher concentration ranges. In addition, the inner filter effects were corrected using a formula F corrected=F observe·antilog [(Aex+Aem)/2], where Aex is the absorbance at the excitation wavelength and Aem is the absorbance at the emission wavelength. The dissociation constant (Kd) was determined by the formula: 1/B=Kd/[free ligand]+1, where B is the fractional occupancy and [free ligand] is the concentration of 9-F-nos, 9-Cl-nos, 9-Br-nos or 9-I-nos. The fractional occupancy (B) was determined by the formula B=ΔF/ΔFmax, where ΔF is the change in fluorescence intensity when tubulin and its ligand are in equilibrium and ΔFmax is the value of maximum fluorescence change when tubulin is completely bound with its ligand. ΔFmax was calculated by plotting 1/ΔF versus 1/[free ligand].

[2] = tested on: CEM cells; assay: In vitro cell proliferation MTS assay; type: cell-based; conditions: Homo sapiens, CCRF-CEM, 72 hours
Experimental: (§1) Suspension cells (CEM, CEMNLB100 and CEM/VM-1-5) were cultured in RPMI-1640 media containing 10% FBS and then seeded into 96-well plates at a density of 5×10^3 cells per well and were treated with increasing gradient concentrations of 9-nitro-nos for 72 hours. Measurement of cell proliferation was performed colorimetrically by 3-(4,5-dimethylthiazol-2-yl)-5-(3-carboxymethoxyphenyl)-2-(4-sulphophenyl)-2H-tetrazolium, inner salt (MTS) assay, using the CellTiter96 AQueous One Solution Reagent (Promega, Madison, Wis.). Cells were exposed to MTS for 3 hours and absorbance was measured using a microplate reader (Molecular Devices, Sunnyvale, Calif.) at an optical density (OD) of 490 nm. The percentage of cell survival as a function of drug concentration for both the assays was then plotted to determine the IC50 value, which stands for the drug concentration needed to prevent cell proliferation by 50%.
as §1, with “(CEM)” for “(CEM, CEMNLB100 and CEM/VM-1-5)”, “were” for “were cultured in RPMI-1640 media containing 10% FBS and then”, “increasing” for “increasing gradient”, “all halogenated analogs” for “9-nitro-nos”

[3] = tested on: 1A9 cells; assay: Sulforhodamine B cell proliferation assay; type: cell-based; conditions: Homo sapiens; 1A9, 72 hours, SRB
Experimental: (§2) Sulforhodamine B assay: The cell proliferation assay was performed in 96-well plates as described previously (Skehan et al., 1990; Zhou et al., 2003). Adherent cells (1A9 and 1A9/PTX22) were seeded in 96-well plates at a density of 5×10^3 cells per well. They were treated with increasing gradient concentrations of 9-nitro-nos the next day while in log-phase growth. After 72 hours of drug treatment, cells were fixed with 50% trichloroacetic acid and stained with 0.4% sulforhodamine B dissolved in 1% acetic acid. Cells were then washed with 1% acetic acid to remove unbound dye. The protein-bound dye was extracted with 10 mM Tris base to determine the optical density at 564-nm wavelength.

[4] = tested on: 1A9/PTX22 cells; assay: Sulforhodamine B cell proliferation assay; type: cell-based; conditions: Homo sapiens, 1A9/ptx-22; 1A9/PTX22, 72 hours, SRB
Experimental: as §2

[5] = tested on: 1A9/PTX22 cells; assay: TUNEL assay for apoptosis (flow cytometry); type: cell-based, human; conditions: 1A9/PTX22, 50 μM, 72 hours
Experimental: DNA strand breaks were identified by using the TUNEL assay as described. In brief, 1A9/PTX22 cells were incubated with 50 μM 9-nitro-nos for 72 hours. Cells were pelleted and washed with ice-cold PBS twice. Cells were then fixed in 1% paraformaldehyde, and apoptosis was detected using the APO-BrdU TUNEL Assay Kit from Molecular Probes (Eugene, Oreg.) according to the manufacturer's instructions. This assay was run on a flow cytometer equipped with a 488 nm argon laser as the light source. Propidium iodide (total cellular DNA) and Alexa-Fluor 488 (apoptotic cells) were the two dyes used. PI fluoresces at about 623 nm and Alexa-Fluor 488 at about 520 nm when excited at 488 nm. […] The gating display was the standard dual parameter DNA doublet discrimination display with the DNA area signal on the Y-axis and the DNA width signal on the X-axis. From this display, a gate was generated around the non-clumped cells and the second gated dual parameter display was generated with the DNA (linear red fluorescence) on the X-axis and the Alexa-Fluor 488 (log green fluorescence) on the Y-axis. Apoptotic cells were subsequently counted as those expressing high Alexa-Fluor 488 fluorescence. Confocal micrographs were also obtained for the TUNEL-stained cells using a 63× objective.

SMILES: COc1ccc2c(c1OC)C(=O)O[C@@H]2[C@H]1c2c(c([N+](=O)[O-])c3c(c2OC)OCO3)CCN1C [9-nitro-nos, (S)-6,7-dimethoxy-3-((R)-4-methoxy-6-methyl-9-nitro-5,6,7,8-tetrahydro-[1,3]dioxolo[4,5-g]isoquinolin-5-yl)isobenzofuran-1(3H)-one]
- Kd [1]: 86 ± 6 µM
- IC50 [2]: 10 µM
- IC50 [3]: 30.1 µM
- IC50 [4]: 27.5 µM
- TUNEL-positive cells [5]: 55.9%
